In patent US20030050247A1, “Chemically-modified peptides, compositions, and methods of production and use” (priority 2000, published 2003):
In brackets after ≈: the same amount, converted by molar mass. Like-named read-outs stand apart in the source and are kept apart here. The star is where a group is joined. Octanoyl = CCCCCCCC(=O)*

Assays:
E. coli = test: Antimicrobial activity of peptide-containing fiber (textiles); settings: Example 17
[1] = tested on: Salmonella typhimurium and Clostridium botulinum; type: cell-based; settings: food preservative; Example 16
in vitro = settings: Vero cells (ATCC CCL81), non-infected
[2] = tested on: Aspergillus niger (ATCC 16888); settings: 22 h at 30° C.
[3] = tested on: K. pneumoniae and P. aeruginosa; test: Antimicrobial assay (MIC, growth inhibited by >90%), Examples 2 and 3; settings: for efficacy (in words): Example 3, second octyl group, compared to the -NH2 peptides, Trp replaced
Aeromonas = settings: 18 h
C. acidivorans = test: Antimicrobial assay, bacterial paper mill isolates; type: cell-based, Comamonas acidivorans; settings: paper mill isolate; TGE medium; 30° C.
P. aeruginosa = test: Antimicrobial assay, bacterial paper mill isolates; type: cell-based, Pseudomonas aeruginosa; settings: paper mill isolate; TGE medium; 30° C.
[4] = tested on: Desulfovibrio desulfuricans (ATCC 7757)
X. maltophila = test: Antimicrobial assay, bacterial paper mill isolates; type: cell-based, Xanthomonas maltophila; settings: paper mill isolate; TGE medium; 37° C.
E. cloacae = test: Antimicrobial assay, bacterial paper mill isolates; type: cell-based, Enterobacter cloacae; settings: paper mill isolate; TGE medium; 30° C.
Bacillus = test: Antimicrobial assay, bacterial cooling tower isolates; type: cell-based; settings: cooling tower isolate; TGE; 18 hr at 35° C.

**Q.** Which MIC (E. coli) does the source give for Decanoyl-Arg-NH-decyl here?
**A.** Its MIC is “≦ 15 μg/ml”.

**Q.** Which MIC [1] does the source give for Octanoyl-Lys-Arg-NH-octyl here?
**A.** The MIC was “≦ 4 μg/ml”.

**Q.** Which MIC (E. coli) does the source give for Octanoyl-Arg-Arg-Arg-NH-octyl here?
**A.** Its MIC is “≦ 8 μg/ml”.

**Q.** For Octanoyl-Arg-Ala-NH-octyl, which MIC [1] is on record?
**A.** Its MIC is “≦ 15 μg/ml”.

**Q.** Which viability at 125 ppm (in vitro) does the source give for CCCCCCCCNC(=O)[C@H](CCCNC(=N)N)NC(=O)[C@H](CCCNC(=N)N)NC(=O)CCCCCCC [Octanoyl-Arg-Arg-NH-octyl] here?
**A.** The viability at 125 ppm was 59%.

**Q.** Which MIC [1] does the source give for CCCCCCCCCNC(=O)[C@H](CCCNC(=N)N)NC(=O)CCCCCCCC [Nonanoyl-Arg-NH-nonyl] here?
**A.** Its MIC is “≦ 4 μg/ml”.

**Q.** And the Growth was inhibited ([2]; 1 μg/ml of peptide)?
**A.** The Growth was inhibited was 43%.

**Q.** And the Growth was inhibited ([2]; 7.8 μg/ml)?
**A.** The Growth was inhibited was 83%.

**Q.** What about the Growth was inhibited ([2]; concentrations as low as 15.6 μg/ml) of the same compound?
**A.** The Growth was inhibited was 98%.

**Q.** With Octanoyl-Arg-Trp-Phe-NH2 as the compound, how does the MIC (E. coli) read?
**A.** Its MIC is “≦ 15 μg/ml”.

**Q.** What about the MIC [1] of the same compound?
**A.** The MIC was “≦ 15 μg/ml”.

**Q.** For Octanoyl-Arg-Cys-NH-octyl, which MIC [1] is on record?
**A.** Its MIC is “≦ 15 μg/ml”.

**Q.** With Octanoyl-Arg-Phe-NH-octyl as the compound, how does the “efficacy (in words)” value [3] read?
**A.** The value was “enhanced efficacy”.

**Q.** What about the MIC [1] of the same compound?
**A.** Its MIC is “≦ 8 μg/ml”.

**Q.** What does the source list for Octanoyl-Arg-Trp-NH2?
**A.** peptide efficacy (MIC values, in words) ([3]; Example 2, acyl chain length and amino acid composition): greatest activity; MIC (E. coli): ≦ 15 μg/ml; MIC [1]: ≦ 15 μg/ml

**Q.** With Nonanoyl-Arg-Arg-NH-nonyl as the compound, how does the MIC (E. coli) read?
**A.** Its MIC is “≦ 2 μg/ml”.

**Q.** With CCCCCCCCNC(=O)[C@H](CCCNC(=N)N)NC(=O)CCCCCCC [Octanoyl-R-NH-octyl, Octanoyl-Arg-NH-octyl] as the compound, how does the MIC (Aeromonas) read?
**A.** The MIC was 62.5 µg/mL (≈ 152 µM).

**Q.** What about the MIC (C. acidivorans) of the same compound?
**A.** The MIC was greater than 313 µg/mL.

**Q.** And the MIC (P. aeruginosa)?
**A.** The MIC was “≦10 μg/ml”.

**Q.** And the MIC [4]?
**A.** Its MIC is 62.5 to 125 µg/mL.

**Q.** And the MIC (X. maltophila)?
**A.** The MIC was “≦5 μg/ml”.

**Q.** And the MIC (E. cloacae)?
**A.** The MIC was greater than 313 µg/mL.

**Q.** What about the MIC (Bacillus) of the same compound?
**A.** Its MIC is 15.6 µg/mL (≈ 37.9 µM).

**Q.** Which “efficacy (in words)” value [3] does the source give for Octanoyl-Arg-Tyr-NH-octyl here?
**A.** The value was “enhanced efficacy”.

**Q.** Which MIC (E. coli) does the source give for “Octanoyl-Arg-Phe-Phe-Arg-NH-octyl (RFFR; HELM PEPTIDE1{[CCCCCCCC(=O)[*:2]].R.F.F.R.[CCCCCCCCN[*:1]]}$$$$V2.0; SMILES CCCCCCCCNC(=O)[C@H](CCCNC(=N)N)NC(=O)[C@H](Cc1ccccc1)NC(=O)[C@H](Cc1ccccc1)NC(=O)[C@H](CCCNC(=N)N)NC(=O)CCCCCCC)” here?
**A.** The MIC was “≦ 4 μg/ml”.
